Laboratory results as given in ChEMBL document CHEMBL5236577, “Targeting Aggrecanases for Osteoarthritis Therapy: From Zinc Chelation to Exosite Inhibition” (J Med Chem, 2022).

Columns and labels:
[1] = biological target: T1, A disintegrin and metalloproteinase with thrombospondin motifs 4 (Homo sapiens, UniProt O75173); assay: Inhibition of recombinant human ADAMTS-4
T1 sequence (O75173 whole entry): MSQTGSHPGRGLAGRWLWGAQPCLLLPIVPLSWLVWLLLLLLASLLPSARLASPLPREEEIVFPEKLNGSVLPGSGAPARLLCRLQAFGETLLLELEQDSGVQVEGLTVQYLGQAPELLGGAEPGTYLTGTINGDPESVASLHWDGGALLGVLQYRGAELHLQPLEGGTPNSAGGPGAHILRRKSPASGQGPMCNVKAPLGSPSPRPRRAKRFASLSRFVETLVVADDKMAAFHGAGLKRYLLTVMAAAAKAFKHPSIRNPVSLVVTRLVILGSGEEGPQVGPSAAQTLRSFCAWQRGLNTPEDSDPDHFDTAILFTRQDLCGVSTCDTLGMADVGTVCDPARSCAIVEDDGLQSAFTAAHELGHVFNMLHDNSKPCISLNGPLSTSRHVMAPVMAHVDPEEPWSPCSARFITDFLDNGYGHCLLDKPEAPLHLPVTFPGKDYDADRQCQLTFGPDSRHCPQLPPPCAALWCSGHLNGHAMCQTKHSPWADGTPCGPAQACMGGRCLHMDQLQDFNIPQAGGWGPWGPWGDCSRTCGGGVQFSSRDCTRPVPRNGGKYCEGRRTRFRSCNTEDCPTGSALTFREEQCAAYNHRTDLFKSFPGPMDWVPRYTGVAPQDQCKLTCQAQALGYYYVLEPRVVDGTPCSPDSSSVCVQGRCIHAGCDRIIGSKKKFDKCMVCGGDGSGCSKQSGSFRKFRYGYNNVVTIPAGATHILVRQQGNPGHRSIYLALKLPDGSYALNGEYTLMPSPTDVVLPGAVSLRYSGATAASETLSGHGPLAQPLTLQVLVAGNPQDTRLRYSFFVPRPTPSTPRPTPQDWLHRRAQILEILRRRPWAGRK

[2] = biological target: T2, A disintegrin and metalloproteinase with thrombospondin motifs 5 (Homo sapiens, UniProt Q9UNA0); assay: Inhibition of recombinant human ADAMTS-5
T2 sequence (Q9UNA0 whole entry): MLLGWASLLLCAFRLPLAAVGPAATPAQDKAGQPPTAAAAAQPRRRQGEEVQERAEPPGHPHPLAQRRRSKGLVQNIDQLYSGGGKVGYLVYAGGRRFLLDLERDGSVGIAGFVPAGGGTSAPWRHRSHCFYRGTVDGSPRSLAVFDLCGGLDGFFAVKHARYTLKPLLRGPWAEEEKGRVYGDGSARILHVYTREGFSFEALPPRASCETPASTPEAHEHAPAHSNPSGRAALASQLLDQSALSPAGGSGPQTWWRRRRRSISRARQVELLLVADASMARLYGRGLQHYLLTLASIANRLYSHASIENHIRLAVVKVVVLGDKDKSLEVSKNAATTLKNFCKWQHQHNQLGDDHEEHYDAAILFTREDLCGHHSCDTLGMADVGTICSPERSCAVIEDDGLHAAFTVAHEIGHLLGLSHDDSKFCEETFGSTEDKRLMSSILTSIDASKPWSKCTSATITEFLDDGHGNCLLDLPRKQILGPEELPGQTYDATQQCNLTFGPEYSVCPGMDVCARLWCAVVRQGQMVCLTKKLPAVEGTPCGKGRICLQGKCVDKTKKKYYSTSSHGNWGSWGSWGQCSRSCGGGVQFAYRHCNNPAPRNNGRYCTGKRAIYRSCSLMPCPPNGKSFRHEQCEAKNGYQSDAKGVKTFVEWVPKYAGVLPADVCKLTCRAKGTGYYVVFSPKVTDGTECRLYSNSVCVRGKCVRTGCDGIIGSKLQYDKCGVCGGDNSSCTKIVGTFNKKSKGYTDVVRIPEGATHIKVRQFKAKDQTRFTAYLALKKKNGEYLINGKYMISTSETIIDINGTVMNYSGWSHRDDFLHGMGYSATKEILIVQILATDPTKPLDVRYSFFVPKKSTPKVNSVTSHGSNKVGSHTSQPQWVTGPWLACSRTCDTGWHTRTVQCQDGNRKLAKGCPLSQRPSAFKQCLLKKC

[3] = biological target: 72 kDa type IV collagenase (Homo sapiens, UniProt P08253); assay: Inhibition of recombinant human MMP2
Matrilysin = biological target: T3, Matrilysin (Homo sapiens, UniProt P09237); assay: Inhibition of recombinant human MMP7
T3 sequence (P09237 whole entry): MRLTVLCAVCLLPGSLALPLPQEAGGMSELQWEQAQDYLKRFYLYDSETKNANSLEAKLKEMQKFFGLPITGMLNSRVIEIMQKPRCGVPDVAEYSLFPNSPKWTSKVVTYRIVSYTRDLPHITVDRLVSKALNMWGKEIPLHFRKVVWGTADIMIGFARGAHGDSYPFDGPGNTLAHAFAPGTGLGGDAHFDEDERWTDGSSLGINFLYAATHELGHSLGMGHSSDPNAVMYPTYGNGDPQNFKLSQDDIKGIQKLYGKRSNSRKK

Collagenase 3 = Collagenase 3 (Homo sapiens, UniProt P45452); assay: Inhibition of recombinant human MMP13

Sequence of 72 kDa type IV collagenase (P08253 whole entry): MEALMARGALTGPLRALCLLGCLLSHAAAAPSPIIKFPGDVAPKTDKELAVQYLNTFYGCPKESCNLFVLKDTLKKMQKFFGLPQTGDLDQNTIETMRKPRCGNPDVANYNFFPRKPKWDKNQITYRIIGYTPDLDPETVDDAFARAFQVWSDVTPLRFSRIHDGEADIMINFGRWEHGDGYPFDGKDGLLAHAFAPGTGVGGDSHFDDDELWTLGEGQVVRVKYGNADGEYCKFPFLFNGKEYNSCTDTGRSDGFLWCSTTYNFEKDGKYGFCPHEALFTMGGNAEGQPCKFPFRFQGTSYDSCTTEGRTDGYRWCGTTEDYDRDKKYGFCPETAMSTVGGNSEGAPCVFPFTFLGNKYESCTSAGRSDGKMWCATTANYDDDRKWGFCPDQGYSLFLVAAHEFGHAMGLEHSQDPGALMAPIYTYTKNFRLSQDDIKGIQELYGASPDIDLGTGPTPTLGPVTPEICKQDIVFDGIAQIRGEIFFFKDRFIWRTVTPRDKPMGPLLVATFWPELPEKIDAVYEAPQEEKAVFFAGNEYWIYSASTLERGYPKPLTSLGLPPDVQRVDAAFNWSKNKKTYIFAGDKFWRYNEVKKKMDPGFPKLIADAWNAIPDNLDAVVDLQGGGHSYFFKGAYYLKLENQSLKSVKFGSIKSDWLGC

## O=c1cc(-c2ccc(O)c(O)c2)oc2cc(O)cc(O)c12 [LUTEOLIN]
[1]
  IC50: 9.8 µM
[2]
  IC50: 12.2 µM
[3]
  IC50: 40.9 µM
Matrilysin
  IC50: 68.2 µM
Collagenase 3
  IC50: 18.3 µM
